Our source for the agonistic activity values is patent US8299111B2, “Compounds which modulate the CB2 receptor” (Boehringer Ingelheim International GmbH, priority 2006, dated 2012).

The target of this assay is T1, human CB2R (Homo sapiens, UniProt P34972).
T1 construct: host or cells: CHO cells
T1 sequence (P34972 whole entry): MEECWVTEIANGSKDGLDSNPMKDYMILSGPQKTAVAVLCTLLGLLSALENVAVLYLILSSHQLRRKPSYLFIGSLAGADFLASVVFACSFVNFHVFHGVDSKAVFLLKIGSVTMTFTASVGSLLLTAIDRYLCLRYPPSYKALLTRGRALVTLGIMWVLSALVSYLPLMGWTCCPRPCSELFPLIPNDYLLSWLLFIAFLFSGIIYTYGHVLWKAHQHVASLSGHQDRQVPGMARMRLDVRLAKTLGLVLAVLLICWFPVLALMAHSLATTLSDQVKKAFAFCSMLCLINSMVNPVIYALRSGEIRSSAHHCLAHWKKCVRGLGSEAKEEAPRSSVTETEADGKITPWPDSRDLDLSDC
The experiment in a line: CB2R mediated modulation of cAMP synthesis. The class given is cell-based. The following applies: found through the use of the above described assays (binding and cAMP); CHO cells expressing human CB2R, forskolin-stimulated cAMP. In short, it runs like this:
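CHO cells expressing human CB2R were treated for 30 min at 37 °C with compound in buffer containing 1 mM IBMX, 0.25% BSA and 10 uM forskolin. cAMP was measured after lysis. EC50 is the concentration giving 50% inhibition of forskolin-stimulated cAMP, scaled to the level set by 1 uM CP55940, fitted by four-parameter logistic.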
Regarding `CC(C)(C(=O)Nc1nc2ccccc2s1)S(=O)(=O)c1ccc(Cl)cc1` [N-Benzothiazol-2-yl-2-(4-chloro-benzenesulfonyl)-2-methyl-propionamide], the agonistic activity result is “agonistic activity”.
Under `CC(C)C(C(=O)Nc1cc(C(C)(C)C)on1)S(=O)(=O)c1ccc(C(F)(F)F)cc1` (stereo not drawn) [N-(5-tert-Butyl-isoxazol-3-yl)-3-methyl-2-(4-trifluoromethyl-benzenesulfonyl)-butyramide] stands “agonistic activity”.
With `CC(C)(C(=O)Nc1ccc(C(F)(F)F)cc1)S(=O)(=O)c1ccc(C(F)(F)F)nc1` [2-methyl-N-[4-(trifluoromethyl)phenyl]-2-{[6-(trifluoromethyl)pyridin-3-yl]sulfonyl}propanamide] the entry was “agonistic activity”; with `Cc1nc(NC(=O)C2(S(=O)(=O)c3ccc(Cl)cc3)CCC2)sc1C(C)(C)C` [1-(4-Chloro-benzenesulfonyl)-cyclobutanecarboxylic acid (5-tert-butyl-4-methyl-thiazol-2-yl)-amide], “agonistic activity”.
In the case of `CC(C)(C(=O)Nc1nc(-c2ccccc2)co1)S(=O)(=O)c1ccccc1` [2-Benzenesulfonyl-2-methyl-N-(4-phenyl-oxazol-2-yl)-propionamide], the agonistic activity result is “agonistic activity”.
With `Cc1nc(NC(=O)C(C)(C)S(=O)(=O)c2ccccc2)sc1C(C)(C)C` [2-Benzenesulfonyl-N-(5-tert-butyl-4-methyl-thiazol-2-yl)-2-methyl-propionamide] the entry was “agonistic activity”; with `CC(C)(C)Cc1cc(NC(=O)C(C)(C)S(=O)(=O)c2ccc(C(F)(F)F)nc2)on1` [N-[3-(2,2-dimethylpropyl)isoxazol-5-yl]-2-methyl-2-{[6-(trifluoromethyl)pyridin-3-yl]sulfonyl}propanamide], “agonistic activity”; with `CC(C)(C)c1cc(NC(=O)C2(S(=O)(=O)c3ccc(C(F)(F)F)cc3)CCC2)no1` [1-(4-Trifluoromethyl-benzenesulfonyl)-cyclobutanecarboxylic acid (5-tert-butyl-isoxazol-3-yl)-amide], “agonistic activity”.
Under `Cn1nc(C(C)(C)C)cc1NC(=O)C(C)(C)S(=O)(=O)c1ccccc1F` [N-(5-tert-Butyl-2-methyl-2H-pyrazol-3-yl)-2-(2-fluoro-benzenesulfonyl)-2-methyl-propionamide] stands “agonistic activity”.
With `Cc1ccc(NC(=O)C(C)(C)S(=O)(=O)c2ccc(C(F)(F)F)nc2)nc1` [2-methyl-N-(5-methylpyridin-2-yl)-2-{[6-(trifluoromethyl)pyridin-3-yl]sulfonyl}propanamide] the entry was “agonistic activity”; with `CC(C)(C(=O)Nc1nc(C2CC2)cs1)S(=O)(=O)c1ccc(Cl)cc1F` [2-[(4-chloro-2-fluorophenyl)sulfonyl]-N-(4-cyclopropyl-1,3-thiazol-2-yl)-2-methylpropanamide], “agonistic activity”; with `CC(C)(C)c1csc(NC(=O)C(C)(C)S(=O)(=O)c2ccc(Cl)cc2Cl)n1` [N-(4-tert-Butyl-thiazol-2-yl)-2-(2,4-dichloro-benzenesulfonyl)-2-methyl-propionamide], “agonistic activity”.
For the compound `Cn1nc(C(C)(C)C)cc1NC(=O)C(C)(C)S(=O)(=O)c1ccc(Cl)cc1` [N-(5-tert-Butyl-2-methyl-2H-pyrazol-3-yl)-2-(4-chloro-benzenesulfonyl)-2-methyl-propionamide], the agonistic activity result is recorded as “agonistic activity”.
Regarding `Cc1ccc(S(=O)(=O)C(C)(C)C(=O)Nc2cccc(C(F)(F)F)n2)cc1F` [2-(3-Fluoro-4-methyl-benzenesulfonyl)-2-methyl-N-(6-trifluoromethyl-pyridin-2-yl)-propionamide], the agonistic activity result was “agonistic activity”.
With `CC(C)(C(=O)Nc1nc(-c2ccccn2)cs1)S(=O)(=O)c1ccc(F)cc1F` [2-(2,4-Difluoro-benzenesulfonyl)-2-methyl-N-(4-pyridin-2-yl-thiazol-2-yl)-propionamide] the entry was “agonistic activity”.
